From ChEMBL document CHEMBL1127194, “1,3- And 1,5-bisbiphenylyl substituted 3-metcaptotriazoles as angiotensin II receptor antagonists” (Bioorg Med Chem Lett, 1993)

Columns and labels:
[1] = biological target: Oryctolagus cuniculus angiotensin II receptor; assay: Inhibition of angiotensin II induced contractions in rabbit aortic ring preparation.
[2] = tested on: Rattus norvegicus; assay: Tested for the decrease in blood pressure at a dose of ~5 mg/kg by intravenous administration for ~24h; format: functional
[3] = tested on: Rattus norvegicus; assay: Tested for the decrease in blood pressure at a dose of ~10 mg/kg by intravenous administration for ~24h; format: functional

Row | pA2 [1] | SMILES | Blood pressure [2] | Blood pressure [3]
1 | 8 | CCCCCCc1nc(SCc2ccc(-c3ccccc3C(=O)O)cc2)nn1Cc1ccc(-c2ccccc2C(=O)O)cc1 |  | 
2 | 5.9 | CCCCCCCc1nc(SCc2ccc(-c3ccccc3C(=O)O)cc2)n(Cc2ccc(-c3ccccc3C(=O)O)cc2)n1 |  | 
3 | 8.4 | CCCCCc1nc(SCc2ccc(-c3ccccc3C(=O)O)cc2)nn1Cc1ccc(-c2ccccc2C(=O)O)cc1 | 24 mmHg | 
4 | 8.1 | CCCCCCc1nc(S(=O)(=O)Cc2ccc(-c3ccccc3C(=O)O)cc2)nn1Cc1ccc(-c2ccccc2C(=O)O)cc1 |  | 
5 | 6.7 | CCCCCCCc1nc(SCc2ccc(-c3ccccc3C(=O)O)cc2)nn1Cc1ccc(-c2ccccc2C(=O)O)cc1 |  | 
6 | 6.1 | O=C(O)c1ccccc1-c1ccc(CSc2nc(Cc3ccccc3)nn2Cc2ccc(-c3ccccc3C(=O)O)cc2)cc1 |  | 
7 | 8.3 | CCCCc1nc(SCc2ccc(-c3ccccc3C(=O)O)cc2)nn1Cc1ccc(-c2ccccc2C(=O)O)cc1 |  | 
8 | 7 | O=C(O)c1ccccc1-c1ccc(CSc2nc(Cc3ccccc3)n(Cc3ccc(-c4ccccc4C(=O)O)cc3)n2)cc1 |  | 
9 | < 5 | CCCCCc1nc(SCc2ccc(-c3ccccc3C(=O)OC)cc2)nn1Cc1ccc(-c2ccccc2C(=O)OC)cc1 |  | 
10 | 7 | CCCCc1nc(SCc2ccc(-c3ccccc3C(=O)O)cc2)n(Cc2ccc(-c3ccccc3C(=O)O)cc2)n1 |  | 
11 | 6.3 | CCCCCc1nc(SCc2ccc(-c3ccccc3C#N)cc2)nn1Cc1ccc(-c2ccccc2C(=O)O)cc1 |  | 
12 | 6.1 | CCCCCCCCc1nc(S(=O)(=O)Cc2ccc(-c3ccccc3C(=O)O)cc2)nn1Cc1ccc(-c2ccccc2C(=O)O)cc1 |  | 
13 | 7.2 | CCCCCc1nc(SCc2ccc(-c3ccccc3C(=O)O)cc2)n(Cc2ccc(-c3ccccc3C(=O)O)cc2)n1 |  | 
14 | 6.5 | CCCCCCCc1nc(S(=O)(=O)Cc2ccc(-c3ccccc3C(=O)O)cc2)nn1Cc1ccc(-c2ccccc2C(=O)O)cc1 |  | 
15 | < 5 | CCCCCc1nc(SCc2ccc(-c3ccccc3C(=O)O)cc2)nn1Cc1ccc(-c2ccccc2C#N)cc1 |  | 
16 |  | CCCCc1nc(Cl)c(CO)n1Cc1ccc(-c2ccccc2-c2nnn[nH]2)cc1 [LOSARTAN] |  | 37 mmHg
17 | 7.5 | CC(C)Cc1nc(SCc2ccc(-c3ccccc3C(=O)O)cc2)nn1Cc1ccc(-c2ccccc2C(=O)O)cc1 |  | 
18 | < 5 | CCCCc1nc(SCc2ccc(-c3ccccc3C(=O)OC)cc2)nn1Cc1ccc(-c2ccccc2C(=O)OC)cc1 |  | 
